Measurements taken from patent publication US5270472A, “Alkanoyl L-carnitine amides with aminoacids and pharmaceutical compositions containing same for promoting regeneration of the nervous tissue, inhibiting neuronal degeneration, enhancing the process of learning and memory and for the treatment of coma” (Sigma-Tau Industrie Farmaceutiche Riunite S.p.A., priority 1991, dated 1993).
Structures can show the parent of a compound that is named as a salt.

What was measured:
[1] = test system: choline acetyltransferase (ChAT); assay: Choline acetyltransferase (ChAT) activity in PC 12 cells; format: cell-based, rat; details: 1 mM, 6 days
Experimental: (§1) Rat pheochromocytoma ((PC 12) cells were grown in RPMI 1640, supplemented with 5% heat inactivated horse serum +5% heat inactivated fetal calf serum at 37° C. in humidified incubator with 5% CO2 atmosphere and fed on alternate days. At subconfluency, cells were dislodged by vigorous shaking and reseeded at 1:1 ratio. Acetyl L-carnitine ALCAR® and ST 857 were dissolved in RPMI and added to cells at the final concentrations indicated in the various experiments.
The method described by Fonnum, F. in "A rapid radiochemical method for the determination of choline acetyltransferase". J. of Neurochem. (1975) vol. 24, 407:409 was used. Briefly, the compounds were added to the culture medium at final concentration of 1 mM.
The cells were grown for 6 days in the presence of ST 857. The medium was changed every other day. On the sixth day the cells were harvested and resuspended directly in a homogenization buffer for ChAT activity assay. Protein content was assayed on an aliquot of the cell suspensions.

PC 12 cells = assay: Neurite outgrowth experiment; format: cell-based, rat
Experimental: The rat pheochromocytoma (PC 12) cell line was chosen as an in vitro model system for NGF-responsive neurons. PC 12 cells are a cell line derived from a tumor of rat adrenal medulla that display NGFR similar to those described for sympathetic and sensory neurons, PC 12 typically respond to NGF by elongating neurites and developing into electrically excitable cells featuring some characteristics of the post-mitotic cholinergic neuronal phenotype.
as §1
PC 12 cells were plated out into 35 mm Petri dishes at a density 2×10^5 cells/ml. On the sixth day of either ALCAR® or ST 857 treatment (1 mM), the cells were added with NGF dissolved in RPMI 1640 at a suboptimal concentration (i.e. ineffective to stimulate neurite outgrowth) of 1 ng/mL (0.037 nM). On day 5 after addition, 100-120 cells from 5-12 randomly chosen microscope fields were counted and assayed for presence of neurities. […]

NGFR mRNA = NGFR mRNA in HCN-1A cells; format: cell-based, human; details: following ST 857 treatment
Source text: (§2) The HCN-1A cells are a non-tumoral cell line derived from human cortical neuroblasts which respond to NGF by differentiating into bipolar or multipolar neurite-bearing neurons.

Tolerability, LD50 = details: mouse, in vivo, mice
Experimental: In mice, LD50 orally is higher than 2 g/kg; LD50 intraperitoneally is higher than 600 mg/kg.

[2] = Tolerability, intraperitoneal or oral; format: in vivo
HCN-1A cells = assay: Effect on cultured human cortical cell line (HCN-1A); format: cell-based
Source text: as §2
HCN-1A cells show immunoreactivity for different neurotransmitters such as GABA, glutamate, somatostatin, cholccystokinin-8 […] and VIP (vasoactive intestinal polypeptide).

[3] = in the presence of NGF (10 ng/mL)

SMILES	ChAT activity ([1]; in the absence of NGF) [nmoli ACh/mg/hour]	ChAT activity [1, 3] [nmoli ACh/mg/hour]	enhancement of the action of NGF on PC 12 cells (PC 12 cells; compared with ALCAR® treatment)	stimulation of neurite outgrowth (in words) (PC 12 cells; in the absence of NGF)	NGFR mRNA (NGFR mRNA)	LD50 (Tolerability, LD50; ip, intraperitoneally) [mg/kg]	LD50 (Tolerability, LD50; po, orally) [mg/kg]	tolerability [2]	neurite outgrowth and cell differentiation (HCN-1A cells; 1 mM)	GABA immunoreactivity and formation of functional synapses (HCN-1A cells; in the presence and in the absence of NGF (10 ng/ml))
CC(=O)O[C@H](CC(=O)[O-])C[N+](C)(C)C [ACETYL L-CARNITINE, acetyl L-carnitine, reference compound]	33.3 ± 4.2	133.3 ± 4.4	–	–	–	–	–	–	–	–
CC(=O)O[C@H](CC(=O)N[C@@H](CCCNC(=N)N)C(=O)O)C[N+](C)(C)C [ST 857, L-acetyl L-carnitinamide of L-arginine chloride hydrochloride]	46.6 ± 2.5	140.0 ± 8.9	enhanced by ST 857 treatment more potently than by ALCAR® treatment	effective in stimulating neurite outgrowth, even in the absence of NGF	increased in these cells following ST 857 treatment, in a manner similar to that elicited by NGF	> 600	> 2000	well tolerated	resulted in neurite outgrowth and cell differentiation toward the neuronal phenotype	induced also GABA immunoreactivity in HCN-1A and formation of functional synapses
